Source: PubChem BioAssay (NCI)
Values joined by “and” are separate entries in the source; they are usually repeats but may differ in a detail not shown here. Identical values can stand only once.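 Compound exposure: 48 hours, 5 concentrations, 96-well plates. GI50 = concentration required for 50% inhibition of growth. TGI marks complete inhibition of growth.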

What follows are compounds tested on UO-31 renal (assay: growth of human tumour cells (NCI), 48 h).

Row | Compound | GI50 | TGI
1 | COc1cnc2c(c1)C(=O)c1c-2n(CCCNC(C)C)c(=O)c2cc(Cl)ccc12 | 0.498 µM | 2.04 µM
2 | S=C(Nc1ccccc1)N(/N=C/C=C/c1ccccc1)c1nnc(-c2ccccc2)c(-c2ccccc2)n1 |  | > 100 µM
3 | CN1CCN(CCOc2ccc(-c3cnc4c(-c5ccccc5F)cnn4c3)cc2)CC1 | 1.33 µM | 2.69 µM

The compounds below were run on RXF 393 renal (assay: growth of human tumour cells (NCI), 48 h).

Row | Compound | GI50 | TGI
4 | OC[C@H]1C[C@](O)(c2ccc(Cl)cc2)[C@@H](c2ccc(Cl)cc2)O1 | 20.8 µM | 39.7 µM
5 | CC(C)N(C(=O)C12C3C4C5(C#N)C3C1(C#N)C5C42I)C(C)C (stereo not drawn) |  | > 100 µM
6 | COc1ccc2c3c([nH]c2c1[N+](=O)[O-])C(C)=NCC3 |  | > 100 µM
7 | CC(C)(C)CC(C)(C)c1cc2c(O)c(c1)Cc1cc(C(C)(C)CC(C)(C)C)cc(c1O)Cc1cc(C(C)(C)CC(C)(C)C)cc(c1O)Cc1cc(C(C)(C)CC(C)(C)C)cc(c1O)C2 |  | > 100 µM
8 | C=CCCCCC/C=C\[C@H](O)C#CC#C/C=C/CO | 34.5 µM | > 100 µM
9 | Cc1cc([N+](=O)[O-])ccc1Nc1cccc(Cl)c1C |  | 34.5 µM
10 | O/N=C/C1C(OCc2ccccc2)C(OCc2ccccc2)C(OCc2ccccc2)CN1Cc1ccccc1 (stereo not drawn) |  | 46.1 µM
11 | Cn1cc(CO)c2c1C(=O)C=C(N1CC1)C2=O | < 0.0305 µM | 0.914 µM
12 | CC1=C(C(=O)Nc2ccccc2)C(c2ccccc2)C(C(=O)Nc2ccccc2)=C(C)N1 |  | > 100 µM
13 | Cc1nn(-c2ccccc2)c2nc(N3CCOCC3)nnc12 |  | > 100 µM
14 | [Cl][Hg][c]1cc(Br)cc(Br)c1 | 1.45 µM | 2.85 µM
15 | CC(C)c1ccc2c(c1)CC[C@@H]1[C@@](C)(C(=O)O)CCC[C@]21C | 0.0244 µM | 0.727 µM
16 | C=C1C(=O)O[C@@H]2C[C@@H]1CC/C(C)=C/CC/C(C)=C/CC[C@@]2(C)O | 19.1 µM | 45.6 µM
17 | CCOc1ccccc1C=C1c2ccccc2C(=O)c2ccccc21 |  | 5.96 µM
18 | O=C(CCn1[nH]c(=O)c(Cl)c(Cl)c1=O)NO |  | > 100 µM
19 | COc1ccc(C(C)=O)cc1N1C(=O)C2C(C1=O)C1(c3ccccc3)C(=O)C2(c2ccccc2)C(c2ccc(C)cc2)=C1c1ccc(C)cc1 (stereo not drawn) | > 100 µM | > 100 µM
20 | CN(C)c1nc2ccccc2[nH]1 |  | > 100 µM
21 | NNC(=S)N/N=C(\CC1OC(=O)c2ccccc21)c1ccccc1O (stereo not drawn) |  | 77.3 µM

Row | Compound | GI50 | TGI
22 | COC(=O)C1=C(O)c2cc(OC)c(OC)cc2C(c2ccc(OC)c(OC)c2)C1 (stereo not drawn) |  | > 100 µM
23 | COC1(OC)CC2C(=O)N(Cc3ccccc3)C1C(S(=O)(=O)c1ccccc1)C2S(=O)(=O)c1ccccc1 (stereo not drawn) |  | 25.6 µM
24 | COC(=O)C(=Cc1cc(OC)ccc1OC)C(=O)OC |  | 31.3 µM
25 | CC1=NNC(=O)C2CCC(=O)N12 (stereo not drawn) |  | > 100 µM
26 | CC(C)c1ccccc1NC(=O)CCc1n[nH]c(=S)o1 |  | > 100 µM
27 | CCCCC(C(=O)C(=O)NC1C2CC3CC(C2)CC1C3)C(=O)C(C)C (stereo not drawn) |  | > 100 µM
28 | COC(=O)c1cc2c(s1)C(=O)c1ccccc1-2 |  | > 100 µM
29 | CC(C)CCN1c2nc(Nc3cc(F)c(O)c(F)c3)ncc2N(C)C(=O)C1C (stereo not drawn) | 7.94 µM | 31.4 µM
30 | Cn1c2c(c3ccccc31)C1CCCCCCC1C1C(=O)OC(=O)C21 (stereo not drawn) |  | 49 µM
31 | Cc1ccc(S(=O)(=O)N(CC(=O)O)c2ccccc2)cc1 |  | > 100 µM
32 | COc1ccc(C(=O)C(c2ccc(OC)cc2)C2(O)C(=O)Nc3ccc([N+](=O)[O-])cc32)cc1 (stereo not drawn) |  | > 100 µM
33 | O=C(/C=C/c1ccccc1O)c1ccccc1O |  | > 100 µM
34 | Cc1nc2c(-c3cnc(N)nc3)nc(N3CCOCC3)nc2n1C(C)C |  | 0.611 µM and 0.315 µM
35 | N#Cc1c(NN)n(C2OC(CO)C(O)C2O)c2ncnc(N)c12 (stereo not drawn) | 0.0398 µM | 0.415 µM
36 | COc1cnc2c(c1)C(=O)c1c-2n(CCCNC(C)C)c(=O)c2cc(Cl)ccc12 | 0.568 µM | 2.01 µM
37 | S=C(Nc1ccccc1)N(/N=C/C=C/c1ccccc1)c1nnc(-c2ccccc2)c(-c2ccccc2)n1 |  | > 100 µM
38 | CN1CCN(CCOc2ccc(-c3cnc4c(-c5ccccc5F)cnn4c3)cc2)CC1 | 1.72 µM | 3.29 µM

The compounds below were run on PC-3 prostate (assay: growth of human tumour cells (NCI), 48 h).

Row | Compound | GI50 | TGI
39 | OC[C@H]1C[C@](O)(c2ccc(Cl)cc2)[C@@H](c2ccc(Cl)cc2)O1 | 19.8 µM | 57.5 µM
40 | C=CCCCCC/C=C\[C@H](O)C#CC#C/C=C/CO | 18.6 µM | 36.1 µM
41 | Cn1cc(CO)c2c1C(=O)C=C(N1CC1)C2=O | 0.0153 µM | 0.128 µM
42 | [Cl][Hg][c]1cc(Br)cc(Br)c1 | 2.16 µM | 7.2 µM
43 | CC(C)c1ccc2c(c1)CC[C@@H]1[C@@](C)(C(=O)O)CCC[C@]21C | 7.62 µM | 82.6 µM
44 | C=C1C(=O)O[C@@H]2C[C@@H]1CC/C(C)=C/CC/C(C)=C/CC[C@@]2(C)O | 6.73 µM | 21.3 µM
45 | COc1ccc(C(C)=O)cc1N1C(=O)C2C(C1=O)C1(c3ccccc3)C(=O)C2(c2ccccc2)C(c2ccc(C)cc2)=C1c1ccc(C)cc1 (stereo not drawn) | > 100 µM | > 100 µM
46 | NC(=Nc1c([N+](=O)[O-])cnc2ccccc12)N1CCOCC1 |  | > 100 µM
47 | CCN(CC)c1ccc2c(c1)OC(N)=C(C#N)C2c1cc(OC)c2c(c1)OCO2 (stereo not drawn) | 0.0309 µM | > 100 µM
48 | Cc1nc2c(-c3cnc(N)nc3)nc(N3CCOCC3)nc2n1C(C)C |  | > 100 µM
49 | COc1ccc(/C=C(/C(=O)N2CCN(c3ccccc3)CC2)c2cc(OC)c(OC)c(OC)c2)cc1O | 0.58 µM | > 100 µM
50 | N#Cc1c(NN)n(C2OC(CO)C(O)C2O)c2ncnc(N)c12 (stereo not drawn) | 0.0778 µM | 
51 | COc1cnc2c(c1)C(=O)c1c-2n(CCCNC(C)C)c(=O)c2cc(Cl)ccc12 | 0.948 µM | 2.57 µM

The compounds below were run on SN12C renal (assay: growth of human tumour cells (NCI), 48 h).

Row | Compound | GI50 | TGI
52 | OC[C@H]1C[C@](O)(c2ccc(Cl)cc2)[C@@H](c2ccc(Cl)cc2)O1 | 17 µM | 35.8 µM
53 | CC(C)N(C(=O)C12C3C4C5(C#N)C3C1(C#N)C5C42I)C(C)C (stereo not drawn) |  | > 100 µM
54 | COc1ccc2c3c([nH]c2c1[N+](=O)[O-])C(C)=NCC3 |  | > 100 µM
55 | CC(C)(C)CC(C)(C)c1cc2c(O)c(c1)Cc1cc(C(C)(C)CC(C)(C)C)cc(c1O)Cc1cc(C(C)(C)CC(C)(C)C)cc(c1O)Cc1cc(C(C)(C)CC(C)(C)C)cc(c1O)C2 |  | > 100 µM
56 | C=CCCCCC/C=C\[C@H](O)C#CC#C/C=C/CO | 15 µM | 35.1 µM
57 | Cc1cc([N+](=O)[O-])ccc1Nc1cccc(Cl)c1C |  | 32.1 µM
58 | O/N=C/C1C(OCc2ccccc2)C(OCc2ccccc2)C(OCc2ccccc2)CN1Cc1ccccc1 (stereo not drawn) | 20.6 µM and 4.32 µM | 62 µM and > 100 µM
59 | Cn1cc(CO)c2c1C(=O)C=C(N1CC1)C2=O | < 0.01 µM | 0.027 µM
60 | CC1=C(C(=O)Nc2ccccc2)C(c2ccccc2)C(C(=O)Nc2ccccc2)=C(C)N1 |  | > 100 µM
61 | Cc1nn(-c2ccccc2)c2nc(N3CCOCC3)nnc12 |  | > 100 µM
62 | [Cl][Hg][c]1cc(Br)cc(Br)c1 | 1.61 µM | 3.56 µM
63 | CCOc1ccccc1C=C1c2ccccc2C(=O)c2ccccc21 |  | > 100 µM
64 | O=C(CCn1[nH]c(=O)c(Cl)c(Cl)c1=O)NO |  | > 100 µM
65 | COc1ccc(C(C)=O)cc1N1C(=O)C2C(C1=O)C1(c3ccccc3)C(=O)C2(c2ccccc2)C(c2ccc(C)cc2)=C1c1ccc(C)cc1 (stereo not drawn) | > 100 µM | > 100 µM
66 | [N-]=[N+]=NC12CC3C4CC5CC3C(C1)C(C5)C4C2 |  | > 100 µM
67 | CN(C)c1nc2ccccc2[nH]1 |  | > 100 µM
68 | NNC(=S)N/N=C(\CC1OC(=O)c2ccccc21)c1ccccc1O (stereo not drawn) |  | > 100 µM
69 | COC(=O)C1=C(O)c2cc(OC)c(OC)cc2C(c2ccc(OC)c(OC)c2)C1 (stereo not drawn) |  | > 100 µM
70 | COC1(OC)CC2C(=O)N(Cc3ccccc3)C1C(S(=O)(=O)c1ccccc1)C2S(=O)(=O)c1ccccc1 (stereo not drawn) |  | 25.4 µM
71 | NC(=Nc1c([N+](=O)[O-])cnc2ccccc12)N1CCOCC1 |  | > 100 µM
72 | CCN(CC)c1ccc2c(c1)OC(N)=C(C#N)C2c1cc(OC)c2c(c1)OCO2 (stereo not drawn) | 0.0537 µM | 6.09 µM
73 | Cc1cc(CC(O)c2ccc(Cl)c(Cl)c2)nc(=O)[nH]1 (stereo not drawn) |  | > 100 µM
74 | COC(=O)C(=Cc1cc(OC)ccc1OC)C(=O)OC |  | 64.3 µM
75 | CC1=NNC(=O)C2CCC(=O)N12 (stereo not drawn) |  | > 100 µM
76 | CC(C)c1ccccc1NC(=O)CCc1n[nH]c(=S)o1 |  | > 100 µM
77 | CCCCC(C(=O)C(=O)NC1C2CC3CC(C2)CC1C3)C(=O)C(C)C (stereo not drawn) |  | > 100 µM
78 | COC(=O)c1cc2c(s1)C(=O)c1ccccc1-2 |  | > 100 µM
